Patent US7807439B2, “Staphylococcus aureus-specific detection media and identifying and/or counting method using same” (Biomerieux S.A., priority 2001, dated 2010)

Tested on: S. saprophyticus 064
Assay: Experiment 1: chromogenic α-glucosidase substrates in gelled medium, colony coloration
Format: cell-based, Staphylococcus saprophyticus
Set-up: key to I (intensity of coloration): 0 corresponds to a lack of activity; 0.1 corresponds to the presence of a trace of coloration; 0.5 corresponds to the presence of a very pale coloration; 1 corresponds to the presence of a clear coloration of weak intensity; 1.5 corresponds to the presence of a coloration which is intermediate between colorations 1 and 2; 2 corresponds to the presence of a true coloration of medium intensity; 2.5 corresponds to the presence of a coloration which is intermediate between colorations 2 and 3; 3 corresponds to the presence of an intense coloration; 3.5 corresponds to the presence of a coloration which is intermediate between colorations 3 and 4; 4 corresponds to the presence of a very intense coloration; key to C (coloration of the colonies): —: the symbol “−” is synonymous with a lack of colour or intensity
Conditions: TI 24 h, substrate 100 mg/l
Procedure: (§1) The α-glucosidase substrates are solubilized in dimethyl sulfoxide at a concentration of 200 g/l. A sufficient volume to obtain a final concentration of substrate of 100 mg/l is added to the four molten media. Microorganisms derived from the bioMérieux internal collection were seeded onto each one of the media, on their own as three dials, using a suspension at 0.5 MacFarland. However, results obtained with microorganisms derived from collections available to the public, ATCC or NCTC for example, would give identical results. The dishes were incubated at 37° C. for 48 hours. The colonies were examined visually after an incubation time of 24 and 48 hours. The coloration and also the intensity of this coloration were noted.
(§2) In table 2 below, as in the tables which will follow, C represents the coloration of the colonies after incubation, I represents the intensity of this coloration, the symbol “−” is synonymous with a lack of colour or intensity, and, finally, TI defines the incubation time. It should be noted that the intensity of the coloration is an arbitrary scale, but which is common to all the biological samples and all the media tested. This scale is valid for this experiment and also for all the experiments which will follow. It can be defined in the following way: • 0 corresponds to a lack of activity, • 0.1 corresponds to the presence of a trace of coloration, • 0.5 corresponds to the presence of a very pale coloration, • 1 corresponds to the presence of a clear coloration of weak intensity, • 1.5 corresponds to the presence of a coloration which is intermediate between colorations 1 and 2, • 2 corresponds to the presence of a true coloration of medium intensity, • 2.5 corresponds to the presence of a coloration which is intermediate between colorations 2 and 3, • 3 corresponds to the presence of an intense coloration • 3.5 corresponds to the presence of a coloration which is intermediate between colorations 3 and 4, • 4 corresponds to the presence of a very intense coloration.

Row | SMILES | C (coloration of the colonies) | I (intensity of coloration)
1 | OC[C@H]1O[C@H](Oc2c[nH]c3cc(Br)ccc23)[C@H](O)[C@@H](O)[C@@H]1O [Red “A” a-GLU, 6-Bromo-3-indoxyl-α-D-glucoside] | — | 0

Same assay, conditions: TI 48 h, substrate 100 mg/l

Row | SMILES | C (coloration of the colonies) | I (intensity of coloration)
2 | OC[C@H]1O[C@H](Oc2c[nH]c3cc(Br)ccc23)[C@H](O)[C@@H](O)[C@@H]1O [Red “A” a-GLU, 6-Bromo-3-indoxyl-α-D-glucoside] | — | 0

Tested on: S. epidermidis 009
Assay: as above
Format: cell-based, Staphylococcus epidermidis
Set-up: key to I (intensity of coloration): 0 corresponds to a lack of activity; 0.1 corresponds to the presence of a trace of coloration; 0.5 corresponds to the presence of a very pale coloration; 1 corresponds to the presence of a clear coloration of weak intensity; 1.5 corresponds to the presence of a coloration which is intermediate between colorations 1 and 2; 2 corresponds to the presence of a true coloration of medium intensity; 2.5 corresponds to the presence of a coloration which is intermediate between colorations 2 and 3; 3 corresponds to the presence of an intense coloration; 3.5 corresponds to the presence of a coloration which is intermediate between colorations 3 and 4; 4 corresponds to the presence of a very intense coloration; key to C (coloration of the colonies): —: the symbol “−” is synonymous with a lack of colour or intensity
Conditions: TI 24 h, substrate 100 mg/l
Procedure: as §1, §2

Row | SMILES | C (coloration of the colonies) | I (intensity of coloration)
3 | OC[C@H]1O[C@H](Oc2c[nH]c3cc(Br)ccc23)[C@H](O)[C@@H](O)[C@@H]1O [Red “A” a-GLU, 6-Bromo-3-indoxyl-α-D-glucoside] | — | 0

Same assay, conditions: TI 48 h, substrate 100 mg/l

Row | SMILES | C (coloration of the colonies) | I (intensity of coloration)
4 | OC[C@H]1O[C@H](Oc2c[nH]c3cc(Br)ccc23)[C@H](O)[C@@H](O)[C@@H]1O [Red “A” a-GLU, 6-Bromo-3-indoxyl-α-D-glucoside] | — | 0

Tested on: S. intermedius 075
Assay: as above
Format: cell-based, Staphylococcus intermedius
Set-up: key to I (intensity of coloration): 0 corresponds to a lack of activity; 0.1 corresponds to the presence of a trace of coloration; 0.5 corresponds to the presence of a very pale coloration; 1 corresponds to the presence of a clear coloration of weak intensity; 1.5 corresponds to the presence of a coloration which is intermediate between colorations 1 and 2; 2 corresponds to the presence of a true coloration of medium intensity; 2.5 corresponds to the presence of a coloration which is intermediate between colorations 2 and 3; 3 corresponds to the presence of an intense coloration; 3.5 corresponds to the presence of a coloration which is intermediate between colorations 3 and 4; 4 corresponds to the presence of a very intense coloration; key to C (coloration of the colonies): —: the symbol “−” is synonymous with a lack of colour or intensity
Conditions: TI 24 h, substrate 100 mg/l
Procedure: as §1, §2

Row | SMILES | C (coloration of the colonies) | I (intensity of coloration)
5 | OC[C@H]1O[C@H](Oc2c[nH]c3cc(Br)ccc23)[C@H](O)[C@@H](O)[C@@H]1O [Red “A” a-GLU, 6-Bromo-3-indoxyl-α-D-glucoside] | — | 0

Same assay, conditions: TI 48 h, substrate 100 mg/l

Row | SMILES | C (coloration of the colonies) | I (intensity of coloration)
6 | OC[C@H]1O[C@H](Oc2c[nH]c3cc(Br)ccc23)[C@H](O)[C@@H](O)[C@@H]1O [Red “A” a-GLU, 6-Bromo-3-indoxyl-α-D-glucoside] | pink | 1.5

Tested on: S. aureus 276
Assay: as above
Format: cell-based, Staphylococcus aureus
Set-up: key to I (intensity of coloration): 0 corresponds to a lack of activity; 0.1 corresponds to the presence of a trace of coloration; 0.5 corresponds to the presence of a very pale coloration; 1 corresponds to the presence of a clear coloration of weak intensity; 1.5 corresponds to the presence of a coloration which is intermediate between colorations 1 and 2; 2 corresponds to the presence of a true coloration of medium intensity; 2.5 corresponds to the presence of a coloration which is intermediate between colorations 2 and 3; 3 corresponds to the presence of an intense coloration; 3.5 corresponds to the presence of a coloration which is intermediate between colorations 3 and 4; 4 corresponds to the presence of a very intense coloration
Conditions: TI 24 h, substrate 100 mg/l
Procedure: as §1, §2

Row | SMILES | C (coloration of the colonies) | I (intensity of coloration)
7 | OC[C@H]1O[C@H](Oc2c[nH]c3cc(Br)ccc23)[C@H](O)[C@@H](O)[C@@H]1O [Red “A” a-GLU, 6-Bromo-3-indoxyl-α-D-glucoside] | pink | 2

Same assay, conditions: TI 48 h, substrate 100 mg/l

Row | SMILES | C (coloration of the colonies) | I (intensity of coloration)
8 | OC[C@H]1O[C@H](Oc2c[nH]c3cc(Br)ccc23)[C@H](O)[C@@H](O)[C@@H]1O [Red “A” a-GLU, 6-Bromo-3-indoxyl-α-D-glucoside] | pink | 2

Tested on: S. aureus 004
Assay: as above
Format: cell-based, Staphylococcus aureus
Set-up: key to I (intensity of coloration): 0 corresponds to a lack of activity; 0.1 corresponds to the presence of a trace of coloration; 0.5 corresponds to the presence of a very pale coloration; 1 corresponds to the presence of a clear coloration of weak intensity; 1.5 corresponds to the presence of a coloration which is intermediate between colorations 1 and 2; 2 corresponds to the presence of a true coloration of medium intensity; 2.5 corresponds to the presence of a coloration which is intermediate between colorations 2 and 3; 3 corresponds to the presence of an intense coloration; 3.5 corresponds to the presence of a coloration which is intermediate between colorations 3 and 4; 4 corresponds to the presence of a very intense coloration
Conditions: TI 24 h, substrate 100 mg/l
Procedure: as §1, §2

Row | SMILES | C (coloration of the colonies) | I (intensity of coloration)
9 | OC[C@H]1O[C@H](Oc2c[nH]c3cc(Br)ccc23)[C@H](O)[C@@H](O)[C@@H]1O [Red “A” a-GLU, 6-Bromo-3-indoxyl-α-D-glucoside] | pink | 0.5

Same assay, conditions: TI 48 h, substrate 100 mg/l

Row | SMILES | C (coloration of the colonies) | I (intensity of coloration)
10 | OC[C@H]1O[C@H](Oc2c[nH]c3cc(Br)ccc23)[C@H](O)[C@@H](O)[C@@H]1O [Red “A” a-GLU, 6-Bromo-3-indoxyl-α-D-glucoside] | pink | 2.5

Tested on: S. aureus 070
Assay: as above
Format: cell-based, Staphylococcus aureus
Set-up: key to I (intensity of coloration): 0 corresponds to a lack of activity; 0.1 corresponds to the presence of a trace of coloration; 0.5 corresponds to the presence of a very pale coloration; 1 corresponds to the presence of a clear coloration of weak intensity; 1.5 corresponds to the presence of a coloration which is intermediate between colorations 1 and 2; 2 corresponds to the presence of a true coloration of medium intensity; 2.5 corresponds to the presence of a coloration which is intermediate between colorations 2 and 3; 3 corresponds to the presence of an intense coloration; 3.5 corresponds to the presence of a coloration which is intermediate between colorations 3 and 4; 4 corresponds to the presence of a very intense coloration
Conditions: TI 24 h, substrate 100 mg/l
Procedure: as §1, §2

Row | SMILES | C (coloration of the colonies) | I (intensity of coloration)
11 | OC[C@H]1O[C@H](Oc2c[nH]c3cc(Br)ccc23)[C@H](O)[C@@H](O)[C@@H]1O [Red “A” a-GLU, 6-Bromo-3-indoxyl-α-D-glucoside] | pink | 2

Same assay, conditions: TI 48 h, substrate 100 mg/l

Row | SMILES | C (coloration of the colonies) | I (intensity of coloration)
12 | OC[C@H]1O[C@H](Oc2c[nH]c3cc(Br)ccc23)[C@H](O)[C@@H](O)[C@@H]1O [Red “A” a-GLU, 6-Bromo-3-indoxyl-α-D-glucoside] | pink | 2.5

Tested on: S. xylosus 008
Assay: as above
Format: cell-based, Staphylococcus xylosus
Set-up: key to I (intensity of coloration): 0 corresponds to a lack of activity; 0.1 corresponds to the presence of a trace of coloration; 0.5 corresponds to the presence of a very pale coloration; 1 corresponds to the presence of a clear coloration of weak intensity; 1.5 corresponds to the presence of a coloration which is intermediate between colorations 1 and 2; 2 corresponds to the presence of a true coloration of medium intensity; 2.5 corresponds to the presence of a coloration which is intermediate between colorations 2 and 3; 3 corresponds to the presence of an intense coloration; 3.5 corresponds to the presence of a coloration which is intermediate between colorations 3 and 4; 4 corresponds to the presence of a very intense coloration; key to C (coloration of the colonies): —: the symbol “−” is synonymous with a lack of colour or intensity
Conditions: TI 24 h, substrate 100 mg/l
Procedure: as §1, §2

Row | SMILES | C (coloration of the colonies) | I (intensity of coloration)
13 | OC[C@H]1O[C@H](Oc2c[nH]c3cc(Br)ccc23)[C@H](O)[C@@H](O)[C@@H]1O [Red “A” a-GLU, 6-Bromo-3-indoxyl-α-D-glucoside] | — | 0

Same assay, conditions: TI 48 h, substrate 100 mg/l

Row | SMILES | C (coloration of the colonies) | I (intensity of coloration)
14 | OC[C@H]1O[C@H](Oc2c[nH]c3cc(Br)ccc23)[C@H](O)[C@@H](O)[C@@H]1O [Red “A” a-GLU, 6-Bromo-3-indoxyl-α-D-glucoside] | pink | 2.5
